This is an account of results in ChEMBL document CHEMBL6177971, “Iterative Optimization Yields Stapled Peptides with Superior Pharmacokinetics and Potency for Renal Fibrosis Treatment” (J Med Chem, 2025).

A short description of data set [1]: Half life of compound. The format is physicochemical.
Data set [2] concerns NIH3T3. Nature of the data set: Inhibition of TGF-beta1-induced EMT in mouse NIH3T3 cells assessed as decrease in alpha-SMA level at 10 uM incubated for 48 hrs by Western blot analysis. Type of data set: functional, cell-based.
Data set [3] relates to NIH3T3. Nature of the data set: Inhibition of TGF-beta1-induced EMT in mouse NIH3T3 cells assessed as decrease in fibronectin level at 10 uM incubated for 48 hrs by Western blot analysis. The format is functional, cell-based. (In general: A western blot detects proteins with antibodies after separation by electrophoresis.)
Data set [4] in a line: Stability in C57BL/6J mouse serum assessed as proteolysis resistance measured up to 72 hrs by HPLC analysis. The format is ADME, cell-free.
The subject of data set [5] is NIH3T3. Nature of the data set: Cytotoxicity against mouse NIH3T3 cells assessed as inhibition of cell viability at 10 to 40 uM incubated for 48 hrs by CCK8 assay. Type of data set: toxicity, cell-based. Particulars: nih3t3, 48 h, dose 10-40 µM. For orientation: Tetrazolium dyes change colour on reduction, which living cells bring about.
Data set [6] is described as follows: Retention time of compound. Type of data set: physicochemical.
Data set [7] relates to HK-2. Nature of the data set: Inhibition of TGF-beta1-induced EMT in human HK-2 cells assessed as decrease in alpha-SMA level at 10 uM incubated for 24 hrs by Western blot analysis. Type of data set: functional, cell-based.
Data set [8] concerns HK-2. Nature of the data set: Inhibition of TGF-beta1-induced EMT in human HK-2 cells assessed as decrease in fibronectin level at 10 uM incubated for 24 hrs by Western blot analysis. The format is functional, cell-based.
In data set [9] the test system is HK-2. Put plainly: Inhibition of TGF-beta1-induced EMT in human HK-2 cells assessed as decrease in collagen I level at 10 uM incubated for 24 hrs by Western blot analysis. The format is functional, cell-based.
Data set [10] is described as follows: Toxicity in male C57BL/6J mouse model of unilateral ureteral obstruction assessed as change in animal appearance administered intraperitoneally every day for 7 days. Particulars: in vivo, ip, 168 h, time 7 day.
Data set [11] is described as follows: Toxicity in male C57BL/6J mouse model of unilateral ureteral obstruction assessed as change in animal behaviour administered intraperitoneally every day for 7 days. Conditions: in vivo, ip, 168 h, time 7 day.
A short description of data set [12]: Toxicity in male C57BL/6J mouse model of unilateral ureteral obstruction assessed as change in animal body weight administered intraperitoneally every day for 7 days. Conditions: in vivo, ip, 168 h, time 7 day.
The subject of data set [13] is Mus musculus. Put plainly: Anti-fibrotic activity in male C57BL/6J mouse model of unilateral ureteral obstruction assessed as decrease in fibronectin level administered intraperitoneally every day for 7 days by Western blot analysis. Type of data set: functional, organism-based. Particulars: route ip, time 7.0 day.
Data set [14] has as its system Mus musculus. Put plainly: Anti-fibrotic activity in male C57BL/6J mouse model of unilateral ureteral obstruction assessed as increase in E-cadherin level administered intraperitoneally every day for 7 days by Western blot analysis. Type of data set: functional, organism-based. Particulars: route ip, time 7.0 day.
The test system of data set [15] is Mus musculus. Put plainly: Anti-fibrotic activity in male C57BL/6J mouse model of unilateral ureteral obstruction assessed as decrease in vimentin level administered intraperitoneally every day for 7 days by Western blot analysis. Type of data set: functional, organism-based. Conditions: route ip, time 7.0 day.
The subject of data set [16] is Mus musculus. Nature of the data set: Anti-fibrotic activity in male C57BL/6J mouse model of unilateral ureteral obstruction assessed as decrease in alpha-SMA level administered intraperitoneally every day for 7 days by Western blot analysis. The format is functional, organism-based. Particulars: route ip, time 7.0 day.
Data set [17] can be described thus: Half life in C57BL/6J mouse at 2.5 mg/kg, iv measured for 3 to 60 mins by HPLC/MS analysis. Type of data set: ADME, organism-based. Conditions: in vivo, time 3-60 min.
In data set [18] the test system is Mus musculus. Put plainly: Anti-fibrotic activity in C57BL/6J mouse model of unilateral ureteral obstruction assessed as decrease in renal inflammation at 20 mg/kg, ip administered every day for 7 days by H and E staining based analysis. Type of data set: functional, organism-based. Particulars: time 7.0 day.
Data set [19] concerns Mus musculus. Nature of the data set: Anti-fibrotic activity in C57BL/6J mouse model of unilateral ureteral obstruction assessed as decrease in renal fibrosis at 20 mg/kg, ip administered every day for 7 days by H and E staining based analysis. The format is functional, organism-based. Conditions: time 7.0 day.

Molecules are shown by their SMILES. The source made the active and inactive calls. No cut-off for these calls is given here. *1 amine or outer side, *2 acyl side, *3 side chain or, on linkers, in order; H or OH if unused. Where a SMILES comes first, the peptide text is derived from it. [ ]: non-standard residue; d: D form. X1 = CCCCC[C@](C)(N[*:1])C(=O)[*:2]; S5 = C=CCCC[C@](C)(N)C(=O)O

As a reminder, the half-life is the time in which the quantity being followed falls by half. Lower therefore signals rapid decline. In turn, `C=CCCC[C@](C)(NC(=O)[C@H](CCC(N)=O)NC(=O)[C@@H]1CCCN1C(=O)[C@@H](CC(N)=O)NC(=O)[C@](C)(CCCC=C)NC(=O)[C@H](Cc1c[nH]cn1)NC(=O)[C@@H](CC(=O)O)NC(=O)CCCCCCCCCCC)C(=O)N[C@@H](CCCNC(=N)N)C(N)=O` showed a half-life in [1] of 208 h. The inhibition entry in data set [2] and in data set [3] was “Active” in each case. Also, in data set [4], the Stability entry is reported as “Stable”. In data set [5], the Activity result is “Toxic”.
As for `C=CCCC[C@](C)(NC(=O)[C@H](Cc1c[nH]cn1)NC(=O)[C@@H](N)CC(=O)O)C(=O)N[C@@H](CC(N)=O)C(=O)N1CCC[C@H]1C(=O)N[C@@H](CCC(N)=O)C(=O)N[C@H](C(=O)N[C@@H](CCCNC(=N)N)C(N)=O)[C@@H](C)CC` (H-DH[S5]NPQIR-NH2), the Retention_time in data set [6] came to 9.036 min. Also, the half-life in data set [1] was 1.64 h; in data set [17], 0.19 h. The inhibition entry in [7], in data set [8] and in [9] was “Active” throughout. Also, the Activity entry in data set [10], in data set [11] and in data set [12] was “Non-toxic” throughout. In addition, the outcome in data set [13], in data set [14], in [15] and in data set [16] was Active.
`C[C@H](CS)C(=O)N1CCC[C@H]1C(=O)O`: the result in [18] and in [19] was Active.
Regarding `C=CCCC[C@](C)(NC(=O)[C@@H](C)NC(=O)[C@H](CCC(N)=O)NC(=O)[C@@H]1CCCN1C(=O)[C@](C)(CCCC=C)NC(=O)[C@H](CC(N)=O)NC(=O)[C@H](Cc1c[nH]cn1)NC(=O)[C@@H](CC(=O)O)NC(=O)CCCCCCCCCCC)C(N)=O`, the half-life in data set [1] was 656 h. The inhibition result in [2] and in data set [3] was “Active” in each case. The Stability result in data set [4] was “Stable”. The Activity entry in data set [5] is reported as “Toxic”.
In data set [6], `CCCCC[C@](C)(NC(=O)[C@H](Cc1c[nH]cn1)NC(=O)[C@@H](N)CC(=O)O)C(=O)N[C@@H](CC(N)=O)C(=O)N1CCC[C@H]1C(=O)N[C@@H](CCC(N)=O)C(=O)N[C@H](C(=O)N[C@@H](CCCNC(=N)N)C(N)=O)[C@@H](C)CC` (H-DH[X1]NPQIR-NH2) had a Retention_time of 10.009 min. For the same compound, the inhibition result in data set [7], in data set [8] and in data set [9] was “Active” in each case. Further, the Activity entry in data set [10], in data set [11] and in data set [12] was “Non-toxic” throughout. Also, the outcome in [13], in data set [14], in data set [15] and in data set [16] was Active.
